Source: article PMC7281280, “Is the Way to Fight Cancer Paved with Gold? Metal-Based Carbene Complexes with Multiple and Fascinating Biological Features” (Pharmaceuticals, 2020)
Like-named read-outs stand apart in the source and are kept apart here.

Key:
[1] = molecular target: T1, human topoisomerase II (hTopo II) (Homo sapiens, UniProt P11388); experiment: Human topoisomerase II decatenation assay; type: biochemical; conditions: 1 μM
T1 construct: purchased topoGEN, Port Orange, FL, USA
Description: Decatenated and linear kDNA (Figure 8, lanes 1 and 2) are used as markers.
hTopo II decatenation assays were performed in a final volume of […], as reported by Iacopetta et al., using […] of kinetoplast DNA (kDNA) (topoGEN, Port Orange, FL, USA), tested compounds and 3 units of hTopo II (topoGEN, Port Orange, FL, USA). The reaction products were loaded in an agarose gel with EB. At the end, the gel was washed with distilled water and analyzed using a UV transilluminator. The experiment was repeated three times.
Lane 1 and 2, decatenated and linear kDNA, respectively.

[2] = system: MDA-MB-231 cells; conditions: at IC50 value, 24 h
Description: At this purpose, we performed immunostaining studies using the mitochondrial probe MitoTracker Deep Red FM and an anti-cytochrome c antibody, to follow the possible release of this protein from the mitochondrial district to the cytoplasm.
The same protocol was performed for mitochondrial staining. […] The primary antibody used in this case was the mouse anti-cytochrome c (556 433), purchased from BD Biosciences. The secondary antibodies used was Alexa Fluor® 488 conjugate goat-anti-mouse (1:500 dilution), purchased from Thermo Fisher Scientific, Waltham, MA, USA.
Images were acquired at 63x magnification and representative fields are shown.

[3] = system: MDA-MB-231 cells; conditions: at IC50 value, 24 h; remark: listed apart in the source
[4] = system: MDA-MB-231 cells; experiment: Detection of intracellular ROS (DCF-DA); type: cell-based, human
Description: We used 2,7-dichlorofluorescin diacetate (DCF-DA) as a fluorometric probe for ROS detection and their production was examined under an inverted fluorescence microscope, as already reported.
Cells were grown on glass coverslips until the treatment with compound or menadione (used as positive control) (Sigma–Aldrich, Milan, Italy). Then, cells were incubated with 10 μM 2′-7′-Dichlorofluorescein diacetate (Sigma–Aldrich, Milan, Italy) for 40 min at 37 °C in a 5% CO2 incubator, as previously described. Then, DAPI (0.2 μg mL^−1) counterstain was performed for 10 min at room temperature, in the dark. Cells were then washed three times with cold PBS, adding one drop of mounting solution, then they were observed and imaged under a fluorescence microscope (Leica DM6000; 20× magnification) with excitation/emission wavelength maxima of 490 nm/515 nm (DCF) or 350 nm/460 nm (DAPI). Images are representative of three independent experiments.
Images were acquired at 20× magnification. […] Fields are representative of three separate experiments.

[5] = system: caspase-9; conditions: 5 μM, 24 h, MDA-MB-231 cells
[6] = system: MDA-MB-231 human breast cancer cells; experiment: MTT cell viability, MDA-MB-231; type: cell-based; conditions: 72 h, mean ± SD
Description: (§1) The six cell lines used in this work (MCF-7, MDA-MB-231, HeLa, […], MCF-10A and Hek-293) were purchased from American Type Culture Collection (ATCC, Manassas, VA, USA). MCF-7 human breast cancer cells, estrogen receptor (ER)-positive, were maintained in Dulbecco’s modified Eagle’s medium/nutrient mixture Ham F-12 (DMEM/F12), supplemented with 10% fetal bovine serum (FBS) and 100 U mL^−1 penicillin/streptomycin. MCF-10A human mammary epithelial cells, were cultured in DMEM/F12 medium, supplemented with 5% horse serum (HS, Thermo Fisher Scientific, Milan, Italy), 100 U mL^−1 penicillin/streptomycin, […] hydrocortisone, 20 ng mL^−1 human epidermal growth factor (hEGF), […] insulin, and […] cholera enterotoxin (Sigma–Aldrich, Milan, Italy). MDA-MB-231 human breast cancer cells, known as triple-negative cells (i.e., not overexpressing human epidermal growth factor receptor 2 (HER2), estrogen and progesterone receptors), were cultured in DMEM/F12 supplemented with 5% FBS, 1% L-glutamine and 100 U mL^−1 penicillin/streptomycin. HeLa human epithelial cervix carcinoma cells, estrogen receptor (ER)-negative, and […] human endometrial adenocarcinoma cells, estrogen receptor (ER)-positive, were maintained in minimum essential Eagle’s Medium (MEM), supplemented with 10% FBS, 1% L-glutamine, 100 U mL^−1 penicillin/streptomycin and 1% Non-Essential Amino Acids (NEAA). Hek-293 human embryonic kidney epithelial cells were cultured in DMEM high glucose (4.5 g L^−1), supplemented with 10% FBS, 1% L-glutamine and 100 U mL^–1 penicillin/streptomycin. Cells were maintained at 37 °C in a humidified atmosphere of 95% air and 5% CO2 and periodically screened for contamination.
(§2) Cell viability has been determined using the 3-(4,5-dimethylthiazol-2-y1)-2,5-diphenyltetrazolium bromide (MTT, Sigma–Aldrich, Milan, Italy) assay. Cells have been seeded on 48-well plates and grown in complete medium. Before being treated, cells have been starved in serum free medium for 24 h for allowing cell cycle synchronization. […] Data are representative of three independent experiments; standard deviations (SD) have been shown.

[7] = system: Hek-293 human embryonic kidney epithelial cells; experiment: MTT cell viability, normal Hek-293; type: cell-based
Description: as §1, §2

[8] = system: MDA-MB-231 cells; experiment: Muse cell cycle assay; conditions: at IC50, 72 h
[9] = system: MCF-7 human breast cancer cells; experiment: MTT cell viability, MCF-7; type: cell-based; conditions: 72 h, mean ± SD
Description: as §1, §2

[10] = system: tubulin; experiment: In vitro tubulin-polymerization assay (turbidity at 350 nm); type: biochemical; conditions: 10 µM
Description: Tubulin-polymerization inihibition was measured using in vitro Tubulin-Polymerization Assay Kit purchased fromEMD Millipore Corporation. Polymerization reactions occur in 70 µL final volumes, of which 60 µL is the 60 µM tubulin in 1 × PB-GTP and 10 µL is the test substance dissolved in 1 × PB-GTP. […] These reactives were combined in 96-well plate on ice. After the plate was transferred into the spectrophotometer pre-warmed at 37 °C and the turbidity variation was measured every 30 s at 350 nm for 90 min. The plate was shaked for 10 s before each measurement. Turbidity (absorbance) readings were used to calculate the extent of polymerization [% inhibition = (1−A350 sample/A350 control) × 100].
Figure 4 Tubulin-polymerization assay. […] Two positive control molecules, Paclitaxel and Vinblastine, were used as tubulin-stabilizing and tubulin-destabilizing agents, respectively. DMSO was used as a negative control. Assembly of tubulin into microtubules was determined by measuring the turbidity at 350 nm for 3600 s at 37 °C. All the compounds were used at a concentration of 10 μM.

[11] = system: ISHIKAWA human endometrial adenocarcinoma cells; experiment: MTT cell viability, […]; type: cell-based; conditions: 72 h, mean ± SD
Description: as §1, §2

T1 sequence (P11388 whole entry): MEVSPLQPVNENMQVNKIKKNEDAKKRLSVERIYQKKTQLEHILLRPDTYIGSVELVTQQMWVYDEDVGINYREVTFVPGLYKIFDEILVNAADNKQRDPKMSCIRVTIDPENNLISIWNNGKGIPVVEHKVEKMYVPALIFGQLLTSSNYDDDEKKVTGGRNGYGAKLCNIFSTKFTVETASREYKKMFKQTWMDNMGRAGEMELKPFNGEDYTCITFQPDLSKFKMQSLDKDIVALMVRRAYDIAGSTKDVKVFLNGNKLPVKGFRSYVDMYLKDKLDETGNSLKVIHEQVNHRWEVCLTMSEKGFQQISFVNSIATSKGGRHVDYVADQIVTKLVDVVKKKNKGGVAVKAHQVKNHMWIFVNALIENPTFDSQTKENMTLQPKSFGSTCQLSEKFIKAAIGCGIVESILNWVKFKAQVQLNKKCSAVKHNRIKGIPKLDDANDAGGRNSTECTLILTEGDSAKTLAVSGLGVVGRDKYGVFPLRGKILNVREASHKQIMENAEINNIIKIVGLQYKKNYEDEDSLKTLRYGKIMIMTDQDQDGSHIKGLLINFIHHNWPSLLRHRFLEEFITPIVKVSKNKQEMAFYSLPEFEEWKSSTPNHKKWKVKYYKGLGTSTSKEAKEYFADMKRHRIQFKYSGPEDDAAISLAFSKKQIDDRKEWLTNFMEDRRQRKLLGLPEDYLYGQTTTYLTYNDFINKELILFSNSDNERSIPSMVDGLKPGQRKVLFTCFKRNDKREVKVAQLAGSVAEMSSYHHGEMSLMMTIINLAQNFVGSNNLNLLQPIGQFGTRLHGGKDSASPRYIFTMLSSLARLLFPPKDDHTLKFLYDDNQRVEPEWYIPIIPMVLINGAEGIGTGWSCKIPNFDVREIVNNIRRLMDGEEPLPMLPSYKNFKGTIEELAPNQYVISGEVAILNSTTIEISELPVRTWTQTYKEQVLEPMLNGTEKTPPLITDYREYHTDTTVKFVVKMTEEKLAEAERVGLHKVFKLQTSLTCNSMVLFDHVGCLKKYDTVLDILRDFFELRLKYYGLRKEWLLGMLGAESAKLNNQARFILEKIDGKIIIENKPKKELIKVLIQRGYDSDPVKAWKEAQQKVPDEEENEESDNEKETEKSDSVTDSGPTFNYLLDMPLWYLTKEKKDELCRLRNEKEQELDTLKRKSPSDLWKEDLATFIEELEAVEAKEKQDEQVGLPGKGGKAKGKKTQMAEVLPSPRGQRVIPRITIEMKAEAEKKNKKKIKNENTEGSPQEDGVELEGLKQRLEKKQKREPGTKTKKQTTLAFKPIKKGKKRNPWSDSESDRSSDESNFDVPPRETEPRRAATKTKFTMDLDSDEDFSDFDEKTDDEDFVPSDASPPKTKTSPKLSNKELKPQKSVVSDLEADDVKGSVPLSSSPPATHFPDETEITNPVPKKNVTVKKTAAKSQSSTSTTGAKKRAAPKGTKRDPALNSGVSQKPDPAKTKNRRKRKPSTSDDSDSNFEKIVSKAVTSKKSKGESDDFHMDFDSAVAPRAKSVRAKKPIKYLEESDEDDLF

For `C[n+]1c(Cl)c(Cl)n(CC(O)c2ccccc2)[c]1[Au-][c]1n(CC(O)c2ccccc2)c(Cl)c(Cl)[n+]1C.[Cl][Au-][Cl]` (racemic) [AuL7, bis-[4,5-dichloro-(N-methyl-N’(2-hydroxy-2-phenyl)ethyl-imidazole-2-ylidene)gold(I)]^+[dichloro-gold]^−], the “inhibition of hTopo II decatenation activity” value [1] was “total blockade of hTopoII activity”, the cytochrome c localization [2] was “cytochrome c release and diffusion into the cytoplasmic compartment” and the “mitochondrial integrity (MitoTracker Deep Red FM)” value [2] was “loss of mitochondrial structural integrity”. The “apoptosis (TUNEL)” value [3] was “green nuclear fluorescence”, the “ROS production, fold lesser compared to Men-treated cells” value ([4]; DCF fluorescence quantified by ImageJ) was 1.5 fold and the “ROS production (DCF green fluorescence)” value ([4]; fluorescence microscopy) was “significantly higher with respect to the vehicle-treated cells”. For the same molecule, the caspase-9 activity [5] was “discrete increase”, the IC50 [6] was 2.1 ± 0.7 µM and the IC50 ([7]; normal cells, MTT, 72 h, mean ± SD, read-out: IC50 Hek-293) was 65 µM. The IC50 ([7]; read-out: IC50 Hek-293 of AuL7 after Quercetin pre-treatment, pre-treatment for 4 h with Quercetin (at 50 μM)) was 96.9 ± 1.1 µM, the “increase of the percentage of cells in G2/M phase vs DMSO control” value [8] was 33.2% and the “increase of the percentage of cells in S phase vs DMSO control” value [8] was 16.1%. For the same molecule, the IC50 [9] was 5.18 ± 0.4 µM, the “effect on tubulin-polymerization reaction” value [10] was “tubulin-polymerization inhibitor” and the “final optical density value at 350 nm (OD350)” value ([10]; 37 °C, vehicle (DMSO) about 0.43) was “about 0.25”. It also gave an IC50 [11] of 29.9 ± 0.9 µM.
